According to US11945822B2, “Pyrazolo-triazine and/or pyrazolo-pxrimidine derivatives as selective inhibitor of cyclin dependent kinase” (QURIENT CO., LTD., priority 2018, dated 2024):

Tested on: MV4-11
Experiment: Cellular MV4-11 viability assay (CellTiter-Glo, 72 hours)
Assay type: cell-based
Details: Homo sapiens
Method in brief: (§1)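 72 h treatment, 37 °C, 5% CO2; DMSO ctrl, final <0.1%; CellTiter-Glo luminescence; n=2.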

Row | IC50 | Structure (SMILES)
1 | < 1 µM | CC(C)c1cnn2c(NCc3ccccc3-c3ccc4ccccc4n3)nc(NCC[C@@H](O)CN)nc12 [Compound 251]
2 | 1 to 10 µM | CC(C)c1cnn2c(NCc3ccccc3-c3ccc4ccccc4n3)nc(N[C@H]3CC[C@@H](O)CC3)nc12 [Compound 265]
3 | 1 to 10 µM | CC(C)c1cnn2c(NCc3ccccc3-c3ccc4ccccc4n3)nc(N[C@H]3CC[C@H](O)CC3)nc12 [Compound 266]

Target: T1, CDK5/p25 (Homo sapiens, UniProt Q00535)
T1 construct: purchased Invitrogen PR8543B
T1 sequence (Q00535 whole entry): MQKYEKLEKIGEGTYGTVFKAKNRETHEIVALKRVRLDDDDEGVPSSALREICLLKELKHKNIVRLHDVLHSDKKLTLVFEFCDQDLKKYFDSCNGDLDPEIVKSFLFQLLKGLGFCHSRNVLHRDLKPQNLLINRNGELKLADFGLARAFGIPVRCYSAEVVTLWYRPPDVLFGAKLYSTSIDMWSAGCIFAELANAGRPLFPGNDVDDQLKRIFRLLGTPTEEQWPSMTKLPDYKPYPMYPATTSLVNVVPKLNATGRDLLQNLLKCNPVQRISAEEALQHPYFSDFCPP
T1 sequence (Q15078 99-307 partner limits assumed): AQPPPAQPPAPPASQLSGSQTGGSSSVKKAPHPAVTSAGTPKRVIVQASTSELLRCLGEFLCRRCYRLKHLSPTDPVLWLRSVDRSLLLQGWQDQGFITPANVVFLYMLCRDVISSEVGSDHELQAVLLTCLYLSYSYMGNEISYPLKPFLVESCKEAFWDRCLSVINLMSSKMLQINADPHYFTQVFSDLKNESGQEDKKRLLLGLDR
Experiment: Enzymatic assay for CDK5 (FRET based LANCE Ultra kinase assay)
Assay type: biochemical
Details: read-out: CDK5 enzymatic activity (IC50 activity range)
Method in brief: (§2)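 LANCE Ultra TR-FRET: ULight-MBP peptide (68 nM) with ATP at Km, […], 60 min at 23° C. EDTA plus Eu-anti-phospho-MBP added, another 60 min, then 665/615 nm emission read. Compounds tested as 8-dose 4-fold DMSO dilutions.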

Row | IC50 | Structure (SMILES)
4 | > 1 µM | CC(C)c1cnn2c(NCc3ccccc3-c3ccc4ccccc4n3)nc(NCC[C@@H](O)CN)nc12 [Compound 251]
5 | > 1 µM | CC(C)c1cnn2c(NCc3ccccc3-c3ccc4ccccc4n3)nc(N[C@H]3CC[C@@H](O)CC3)nc12 [Compound 265]
6 | > 1 µM | CC(C)c1cnn2c(NCc3ccccc3-c3ccc4ccccc4n3)nc(N[C@H]3CC[C@H](O)CC3)nc12 [Compound 266]

Tested on: OVCAR-3
Experiment: Cellular OVCAR-3 viability assay (CellTiter-Glo, 72 hours)
Assay type: cell-based
Details: Homo sapiens
Excerpt: Human T-cell acute lymphoblastic leukemia cell line, MOLT-4 (ATCC, Cat #CRL-1582), Human multiple myeloma cell line, RPMI-8226 (Invitrogen, Cat #22400-089) and MM.1S (ATCC, Cat #CRL-2974), NSCLC (Non-small cell lung cancer) cell line H460 (ATCC, Cat #HTB-177), Human colon colorectal carcinoma cell line HCT116 (ATCC, Cat #CCL-247), Human acute monocytic leukemia cell line MV4-11 (ATCC, Cat #CRL-9591), OVCAR-3 (ATCC, Cat #HTB-161) and A2780 (ECACC, Cat #93112519) were obtained from ATCC. Cells were grown in RPMI-1640 media (Invitrogen, Cat #22400-089) supplemented with 10% FBS (Invitrogen, Cat #10099141) and 1% penicillin/streptomycin (Invitrogen, Cat #15070063) and cultured at 37° C., 5% CO2 in a humidified chamber. All cell lines were routinely tested for mycoplasma.
The effect of the CDK7 inhibitor to inhibit the growth of target cancer cells was evaluated through the 72 hours time period of viability assay. Briefly, the candidate cell line ware plated in 96 well plate at the following density of cells respectively. 1×10^4 cells/well for MOLT-4, RPMI-8226, MV4-11 and MM.1S, 5×10^3 for H460, HCT116 and OVCAR-3 and IX 10^3 for A2780. After 24 hours, the cells were treated with various concentrations of the compound (ranging from 0.0015 uM to 10 uM). DMSO solvent without compound served as a control and final DMSO concentration less than 0.1%. After 72 hours of incubation at 37° C., 5% CO2 incubator, cells were analyzed for the viability using the CellTiter-Glo Luminescent Cell Viability Assay (Promega, Cat #G7570). All viability assays were performed in duplicate and Luminescence was read using an Envision (Perkin Elmer, USA). Data was analyzed using XLfit software.

Row | IC50 | Structure (SMILES)
7 | 1 to 10 µM | CC(C)c1cnn2c(NCc3ccccc3-c3ccc4ccccc4n3)nc(NCC[C@@H](O)CN)nc12 [Compound 251]
8 | 1 to 10 µM | CC(C)c1cnn2c(NCc3ccccc3-c3ccc4ccccc4n3)nc(N[C@H]3CC[C@@H](O)CC3)nc12 [Compound 265]
9 | ≤ 1 µM | CC(C)c1cnn2c(NCc3ccccc3-c3ccc4ccccc4n3)nc(N[C@H]3CC[C@H](O)CC3)nc12 [Compound 266]

Target: T2, CDK7/Cyclin H/MNAT1 (Homo sapiens, UniProt P50613)
T2 construct: purchased Invitrogen PR6749B
T2 sequence (P50613 whole entry): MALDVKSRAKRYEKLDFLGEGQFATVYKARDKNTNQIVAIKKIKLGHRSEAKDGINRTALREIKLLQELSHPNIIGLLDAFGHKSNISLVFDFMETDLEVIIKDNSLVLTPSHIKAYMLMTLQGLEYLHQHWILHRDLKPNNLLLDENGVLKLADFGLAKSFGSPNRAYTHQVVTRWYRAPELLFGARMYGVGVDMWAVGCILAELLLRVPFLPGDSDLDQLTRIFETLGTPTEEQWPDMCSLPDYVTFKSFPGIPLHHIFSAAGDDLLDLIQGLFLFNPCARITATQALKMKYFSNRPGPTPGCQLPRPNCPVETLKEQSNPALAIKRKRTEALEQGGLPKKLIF
T2 sequence (P51946 whole entry partner): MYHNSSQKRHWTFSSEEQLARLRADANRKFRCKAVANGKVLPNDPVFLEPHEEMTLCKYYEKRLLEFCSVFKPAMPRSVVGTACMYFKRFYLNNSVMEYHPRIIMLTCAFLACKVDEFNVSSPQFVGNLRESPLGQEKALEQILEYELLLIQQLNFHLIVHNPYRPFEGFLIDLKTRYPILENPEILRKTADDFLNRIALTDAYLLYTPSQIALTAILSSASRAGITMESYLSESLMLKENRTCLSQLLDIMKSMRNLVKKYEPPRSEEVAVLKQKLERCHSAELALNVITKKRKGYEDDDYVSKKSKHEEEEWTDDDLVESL
T2 sequence (P51948 whole entry partner): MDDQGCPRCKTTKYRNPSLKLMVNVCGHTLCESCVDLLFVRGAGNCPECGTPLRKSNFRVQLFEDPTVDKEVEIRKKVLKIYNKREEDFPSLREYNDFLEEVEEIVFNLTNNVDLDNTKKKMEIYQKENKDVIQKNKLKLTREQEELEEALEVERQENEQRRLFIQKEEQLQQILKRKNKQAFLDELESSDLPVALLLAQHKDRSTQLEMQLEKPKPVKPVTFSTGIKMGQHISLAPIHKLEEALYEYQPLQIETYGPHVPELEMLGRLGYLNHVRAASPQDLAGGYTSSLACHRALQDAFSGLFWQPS
Experiment: Enzymatic assay for CDK7 (FRET based LANCE Ultra kinase assay)
Assay type: biochemical
Details: CDK1/CDK7
Method in brief: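 LANCE Ultra TR-FRET kinase assay using a ULight-labeled peptide substrate and a Eu-labeled anti-phospho antibody, with ATP at its Km. Purified CDK/cyclin complex was added to compound after brief centrifugation.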

Row | CDK1/CDK7: Selectivity of CDK7 inhibition over CDK1 inhibition | Structure (SMILES)
10 | A (A=greater than 200 fold) | CC(C)c1cnn2c(NCc3ccccc3-c3ccc4ccccc4n3)nc(NCC[C@@H](O)CN)nc12 [Compound 251]
11 | A (A=greater than 200 fold) | CC(C)c1cnn2c(NCc3ccccc3-c3ccc4ccccc4n3)nc(N[C@H]3CC[C@@H](O)CC3)nc12 [Compound 265]
12 | A (A=greater than 200 fold) | CC(C)c1cnn2c(NCc3ccccc3-c3ccc4ccccc4n3)nc(N[C@H]3CC[C@H](O)CC3)nc12 [Compound 266]

Same assay, conditions: CDK2/CDK7

Row | CDK2/CDK7: Selectivity of CDK7 inhibition over CDK2 inhibition | Structure (SMILES)
13 | A (A=greater than 200 fold) | CC(C)c1cnn2c(NCc3ccccc3-c3ccc4ccccc4n3)nc(NCC[C@@H](O)CN)nc12 [Compound 251]
14 | A (A=greater than 200 fold) | CC(C)c1cnn2c(NCc3ccccc3-c3ccc4ccccc4n3)nc(N[C@H]3CC[C@@H](O)CC3)nc12 [Compound 265]
15 | A (A=greater than 200 fold) | CC(C)c1cnn2c(NCc3ccccc3-c3ccc4ccccc4n3)nc(N[C@H]3CC[C@H](O)CC3)nc12 [Compound 266]

Same assay, conditions: CDK5/CDK7

Row | CDK5/CDK7: Selectivity of CDK7 inhibition over CDK5 inhibition | Structure (SMILES)
16 | A (A=greater than 200 fold) | CC(C)c1cnn2c(NCc3ccccc3-c3ccc4ccccc4n3)nc(NCC[C@@H](O)CN)nc12 [Compound 251]
17 | A (A=greater than 200 fold) | CC(C)c1cnn2c(NCc3ccccc3-c3ccc4ccccc4n3)nc(N[C@H]3CC[C@@H](O)CC3)nc12 [Compound 265]
18 | A (A=greater than 200 fold) | CC(C)c1cnn2c(NCc3ccccc3-c3ccc4ccccc4n3)nc(N[C@H]3CC[C@H](O)CC3)nc12 [Compound 266]

Same assay, conditions: read-out: CDK7 enzymatic activity (IC50 activity range)

Row | IC50 | Structure (SMILES)
19 | < 0.1 µM | CC(C)c1cnn2c(NCc3ccccc3-c3ccc4ccccc4n3)nc(NCC[C@@H](O)CN)nc12 [Compound 251]
20 | < 0.1 µM | CC(C)c1cnn2c(NCc3ccccc3-c3ccc4ccccc4n3)nc(N[C@H]3CC[C@@H](O)CC3)nc12 [Compound 265]
21 | < 0.1 µM | CC(C)c1cnn2c(NCc3ccccc3-c3ccc4ccccc4n3)nc(N[C@H]3CC[C@H](O)CC3)nc12 [Compound 266]

Tested on: A2780
Experiment: Cellular A2780 viability assay (CellTiter-Glo, 72 hours)
Assay type: cell-based
Details: Homo sapiens
Method in brief: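 Cells seeded at 1×10^4/well (MM.1S), 5×10^3 (OVCAR-3) or 1×10^3 (A2780), grown in RPMI-1640 with 10% FBS. After 24 h, compound added at 0.0015–10 uM, final DMSO below 0.1%, for 72 h at 37° C. Viability read by CellTiter-Glo luminescence in duplicate, with curve fitting.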

Row | IC50 | Structure (SMILES)
22 | ≤ 1 µM | CC(C)c1cnn2c(NCc3ccccc3-c3ccc4ccccc4n3)nc(NCC[C@@H](O)CN)nc12 [Compound 251]
23 | ≤ 1 µM | CC(C)c1cnn2c(NCc3ccccc3-c3ccc4ccccc4n3)nc(N[C@H]3CC[C@@H](O)CC3)nc12 [Compound 265]
24 | ≤ 1 µM | CC(C)c1cnn2c(NCc3ccccc3-c3ccc4ccccc4n3)nc(N[C@H]3CC[C@H](O)CC3)nc12 [Compound 266]

Tested on: H460
Experiment: Cellular H460 viability assay (CellTiter-Glo, 72 hours)
Assay type: cell-based
Details: Homo sapiens, NCI-H460
Method in brief: as §1

Row | IC50 | Structure (SMILES)
25 | < 1 µM | CC(C)c1cnn2c(NCc3ccccc3-c3ccc4ccccc4n3)nc(NCC[C@@H](O)CN)nc12 [Compound 251]
26 | < 1 µM | CC(C)c1cnn2c(NCc3ccccc3-c3ccc4ccccc4n3)nc(N[C@H]3CC[C@@H](O)CC3)nc12 [Compound 265]
27 | < 1 µM | CC(C)c1cnn2c(NCc3ccccc3-c3ccc4ccccc4n3)nc(N[C@H]3CC[C@H](O)CC3)nc12 [Compound 266]

Target: T3, CDK1/Cyclin B (Homo sapiens, UniProt P06493)
T3 construct: purchased Invitrogen PR4768C
T3 sequence (P06493 whole entry): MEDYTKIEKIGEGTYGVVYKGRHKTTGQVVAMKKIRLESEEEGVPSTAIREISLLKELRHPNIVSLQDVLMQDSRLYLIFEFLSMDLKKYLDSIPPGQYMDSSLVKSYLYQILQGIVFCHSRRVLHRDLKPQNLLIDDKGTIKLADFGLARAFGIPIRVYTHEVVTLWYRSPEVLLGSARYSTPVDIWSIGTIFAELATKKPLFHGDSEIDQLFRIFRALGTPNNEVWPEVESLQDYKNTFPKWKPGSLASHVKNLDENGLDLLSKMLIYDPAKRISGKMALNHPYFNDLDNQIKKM
T3 sequence (P14635 whole entry partner): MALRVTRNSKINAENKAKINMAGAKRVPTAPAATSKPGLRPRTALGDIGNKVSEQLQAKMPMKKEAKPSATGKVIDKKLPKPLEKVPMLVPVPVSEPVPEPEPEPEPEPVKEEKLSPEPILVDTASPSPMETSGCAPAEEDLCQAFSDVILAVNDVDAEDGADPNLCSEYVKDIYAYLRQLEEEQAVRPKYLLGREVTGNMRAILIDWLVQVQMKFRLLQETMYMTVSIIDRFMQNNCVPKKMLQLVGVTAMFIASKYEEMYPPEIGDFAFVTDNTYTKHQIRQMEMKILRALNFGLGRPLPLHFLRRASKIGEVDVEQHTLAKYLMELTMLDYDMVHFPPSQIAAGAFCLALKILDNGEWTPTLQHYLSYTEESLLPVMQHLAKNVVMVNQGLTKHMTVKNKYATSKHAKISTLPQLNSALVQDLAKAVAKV
Experiment: Enzymatic assay for CDK1 (FRET based LANCE Ultra kinase assay)
Assay type: biochemical
Details: read-out: CDK1 enzymatic activity (IC50 activity range)
Method in brief: as §2

Row | IC50 | Structure (SMILES)
28 | > 1 µM | CC(C)c1cnn2c(NCc3ccccc3-c3ccc4ccccc4n3)nc(NCC[C@@H](O)CN)nc12 [Compound 251]
29 | > 1 µM | CC(C)c1cnn2c(NCc3ccccc3-c3ccc4ccccc4n3)nc(N[C@H]3CC[C@@H](O)CC3)nc12 [Compound 265]
30 | > 1 µM | CC(C)c1cnn2c(NCc3ccccc3-c3ccc4ccccc4n3)nc(N[C@H]3CC[C@H](O)CC3)nc12 [Compound 266]

Target: T4, CDK2/Cyclin A (Homo sapiens, UniProt P24941)
T4 construct: purchased Invitrogen PV6290
Experiment: Enzymatic assay for CDK2 (FRET based LANCE Ultra kinase assay)
Assay type: biochemical
Details: read-out: CDK2 enzymatic activity (IC50 activity range)
Method in brief: as §2

Row | IC50 | Structure (SMILES)
31 | > 1 µM | CC(C)c1cnn2c(NCc3ccccc3-c3ccc4ccccc4n3)nc(NCC[C@@H](O)CN)nc12 [Compound 251]
32 | > 1 µM | CC(C)c1cnn2c(NCc3ccccc3-c3ccc4ccccc4n3)nc(N[C@H]3CC[C@@H](O)CC3)nc12 [Compound 265]
33 | > 1 µM | CC(C)c1cnn2c(NCc3ccccc3-c3ccc4ccccc4n3)nc(N[C@H]3CC[C@H](O)CC3)nc12 [Compound 266]
